Test results: patent US5369098A, “Hydroxymethyl cyclobutyl purines” (E. R. Squibb & Sons, Inc., priority 1989, dated 1994)

Assays:
Type in all cases: cell-based
[1] = test system: HSV-1 (herpes simplex virus type 1, strain Schooler); assay: HSV-1 antiviral assay (plaque reduction in WI-38 cell monolayers); settings: Human alphaherpesvirus 1, 96 h; WI-38 cells; plaque reduction of at least 50%; 4 days at 37° C.; read-out: ID50 for HSV-1
Procedure: (§1) Assays were performed in cell culture systems to determine the concentrations of compounds that are effective in preventing several kinds of viral infections. HSV-1 (herpes simplex virus type 1, strain Schooler), HSV-2 (herpes simplex virus type 2, strain 186), VZV (varicella zoster virus, strain ELLEN), MuLV (murine leukemia virus, strain CAS), HIV (human immunodeficiency virus, strain HTLV-IIIB). Cell Culture Assays: HSV-1, HSV-2, and VZV antiviral assays: Virus was adsorbed to WI-38 cell culture monolayers in 6 well culture plates (Costar, Cambridge, Mass.) for 1 hour prior to addition of maintenance medium containing duplicate dilutions of the test compound. Inhibition of plaque development was evaluated on fixed and stained monolayers after 4 days incubation at 37° C. for HSV-1 and HSV-2 and after 6-7 days incubation at 37° C. for VZV. ID50 values were determined from the drug concentration which conferred at least a 50% plaque reduction compared to virus controls.

[2] = test system: HSV-2 (herpes simplex virus type 2, strain 186); assay: HSV-2 antiviral assay (plaque reduction in WI-38 cell monolayers); settings: Human alphaherpesvirus 2, 96 h; WI-38 cells; plaque reduction of at least 50%; 4 days at 37° C.; read-out: ID50 for HSV-2
Procedure: as §1

[3] = test system: VZV (varicella zoster virus, strain ELLEN); assay: VZV antiviral assay (plaque reduction in WI-38 cell monolayers); settings: Human alphaherpesvirus 3; WI-38 cells; plaque reduction of at least 50%; 6-7 days at 37° C.; read-out: ID50 for VZV
Procedure: as §1

[4] = test system: MuLV (murine leukemia virus, strain CAS); assay: MuLV antiviral assay (syncytial plaques, SC-1 cells / XC cells); settings: SC1, XC cell overlay, syncytial plaques counted, read-out: ID50 for MuLV
Procedure: Assays were performed in cell culture systems to determine the concentrations of compounds that are effective in preventing several kinds of viral infections.
HSV-1 (herpes simplex virus type 1, strain Schooler), HSV-2 (herpes simplex virus type 2, strain 186), VZV (varicella zoster virus, strain ELLEN), MuLV (murine leukemia virus, strain CAS), HIV (human immunodeficiency virus, strain HTLV-IIIB). Cell Culture Assays:
MuLV antiviral assay: Antiviral assays using MuLV were performed with some modification, as described by Rowe et al. and Shannon et al.. SC-1 cells were planted at approximately 2×10^5 cell per well in 6 well plates. After overnight incubation at 37° C., the cell cultures were sensitized with DEAE-Dextran for one hour at 37° C., rinsed and inoculated with MuLV. Cultures were re-fed with growth medium containing different concentrations of the test compound. After three more days at 37° C., cultures were re-fed with fresh medium plus test compounds and incubated at 37° C. for an additional 3 days. Cultures were then washed to remove medium, ultraviolet light irradiated, and planted with approximately 5×10^5 XC cells per well in cell growth medium containing the appropriate concentration of the test compound. […] Finally the cultures were rinsed, stained and syncytial plaques were counted. […]

[5] = test system: HIV (human immunodeficiency virus, strain HTLV-IIIB); assay: HIV antiviral assay (reduction of viral cytopathic effect in CEM cells, XTT-PMS); settings: Human immunodeficiency virus 1, IIIB, CCRF-CEM, 168 h, minimum drug concentration that inhibits CPE by 50%, 7 days at 37° C., read-out: ID50 for HIV
Procedure: Assays were performed in cell culture systems to determine the concentrations of compounds that are effective in preventing several kinds of viral infections. HSV-1 (herpes simplex virus type 1, strain Schooler), HSV-2 (herpes simplex virus type 2, strain 186), VZV (varicella zoster virus, strain ELLEN), MuLV (murine leukemia virus, strain CAS), HIV (human immunodeficiency virus, strain HTLV-IIIB). Cell Culture Assays: HIV antiviral assay: Suspensions of CEM cells (P. L. Nara, et. al., Nature 332, 469(1988)) were infected at a multiplicity of infection of 0.12 TCID50 /cell with HIV (strain HTLV-III B). […] Following incubation, viable cell numbers were counted in each well using a colorimetric assay following incubation of cells with XTT-PMS solution (XTT tetrazolium reagent plus phenazine methosulfate, PMS). Percent reduction of viral cytopathic effect (CPE) in drug treated compared to untreated virus infected cells, and percent reduction of cell viability in drug treated uninfected cells compared to untreated controls were calculated and plotted versus the drug concentrations tested. […]

[6] = Reduction of viability of uninfected CEM cells (XTT-PMS); settings: human, footnotes *** and **** to HIV, 7 days, read-out: Minimum cytotoxic drug concentration that reduces cell viability by 50%
Procedure: HIV antiviral assay: Suspensions of CEM cells (P. L. Nara, et. al., Nature 332, 469(1988)) were infected at a multiplicity of infection of 0.12 TCID50 /cell with HIV (strain HTLV-III B). After adsorption for 1-2 hours at 37° C., infected cells were diluted in growth medium (RPMI 1640 containing the antibiotics penicillin plus streptomycin and 10% fetal calf serum) to give a final cell concentration of 1×10^4 viable cells/culture well in the presence of serial dilutions of the test compound, starting at 100 μg/ml. Triplicate samples at each drug concentration were used. Cultures of uninfected CEM cells were similarly prepared and incubated with serial dilutions of test compound in duplicate. All assays were performed in 96 well disposable cell culture plates. Untreated (infected and uninfected) cells were included as controls. […] Following incubation, viable cell numbers were counted in each well using a colorimetric assay following incubation of cells with XTT-PMS solution (XTT tetrazolium reagent plus phenazine methosulfate, PMS). Percent reduction of viral cytopathic effect (CPE) in drug treated compared to untreated virus infected cells, and percent reduction of cell viability in drug treated uninfected cells compared to untreated controls were calculated and plotted versus the drug concentrations tested. […]

[7] = Cytotoxicity by microscopic examination of the cell sheet; settings: human, WI-38 cells

| IC50 [4] [µM] | IC50 [5] [µM] | SMILES | IC50 [1] [µM] | IC50 [2] [µM] | IC50 [3] [µM] | CC50 at 168 h [6] [µM] | MCC at 96 h ([7]; footnote * to HSV-1 and HSV-2, 4 days, read-out: Cytotoxic concentration by microscopic examination of the cell sheet (HSV-1 and HSV-2 assays)) [µM] | MCC ([7]; footnote ** to VZV, 6-7 days, read-out: Cytotoxic concentration by microscopic examination of the cell sheet (VZV assay)) [µM] |
| --- | --- | --- | --- | --- | --- | --- | --- | --- |
| 43 to 106 | 230 | Nc1nc2c(ncn2[C@H]2C[C@@H](CO)C2)c(=O)[nH]1 [Example 1, (cis)-2-amino-1,9-dihydro-9-[3-(hydroxymethyl)cyclobutyl]-6H-purin-6-one] | 9 to 21 | 9 to 21 | 21 | > 425 | – | – |
| 23 to 46 | 301 | Nc1ncnc2c1ncn2[C@H]1C[C@@H](CO)C1 [Example 2, (cis)-3-(6-Amino-9H-purin-9-yl)cyclobutanemethanol] | 456 | 456 | > 114 | > 456 | 456 | 228 |
